{"source": "paper PMC12455572", "about": "“Amphipathic Proline-Rich Cell Penetrating Peptides for Targeting Mitochondria” (ACS Chemical Biology, 2025)", "key": {"MCF-7 cells [1]": {"test_system": "MCF-7 cells", "experiment": "Confocal microscopy of live cells: cellular uptake and intracellular localization", "assay_type": "cell-based", "settings": "live MCF-7 cells, 1 h, 37 °C, DMEM + 1% FBS", "description": "MitoTracker Deep Red was used as a counter stain for mitochondria and Hoechst 33342 for the nucleus. […] To explore whether PPII-helicity is key for mitochondrial localization, we prepared peptide CF-Ahx-(ChaRR)3-NH2 with Arg instead of Gup residues. This control peptide features a flexible conformation as judged by CD spectroscopy (Figure S1B). […] These findings show the importance of the secondary structure of the CPP for subcellular organelle localization.\nMCF-7 cells were seeded in a 8-μwell Ibidi plate at 25′000 cells/well in DMEM (100 μL, 10% FCS) and allowed to adhere overnight. The medium was removed, the cells were washed with PBS (200 μL, 1x) and incubated with the peptide solution at 20 μM, 10 μM, 5 μM or 2.5 μM in DMEM (200 μL, 1% FCS) for 1 h at 37 °C. The medium was removed, and the cells were washed with PBS (200 μL, 2x). MitoTracker Deep Red was distributed at 20 nM in DMEM (200 μL, 1% FBS) and the cells were incubated at 37 °C for 25 min. The medium was removed, and the cells were washed with PBS (200 μL, 2x). Hoechst333342 was distributed at 2 μM in DMEM (200 μL, 1% FBS) and the cells were incubated at 37 °C for 5 min. The cells were washed with PBS (200 μL, 2x), and FluoroBrite medium (200 μL) was added. The live cells were monitored on the confocal microscope at 37 °C, 5% CO2.\nFor the cells subjected to a 24 h rest period, the FluoroBrite medium was exchanged for DMEM (200 μL, 10% FBS) after the initial imaging, and the cells were kept in this medium for 24 h. The culture medium was then exchanged for FluoroBrite DMEM, and the cells were imaged again.\nFluorescence images of cells were collected using a Nikon Eclipse T1 (inverse) microscope equipped with a Yokogawa Confocal Scanner Unit CSU-W1-T2, containing a spinning disk (50 µm). The microscope is equipped with two EMCCD Andor iXon Ultra cameras. Emission in the blue channel (405 nm) was filtered with a 450/50 bandpass filter, emission in the green channel (488 nm) was filtered with a 525/50 bandpass, and the emission in the red channel (641 nm) was filtered with a 708/75 bandpass filter. Fluorescence images were obtained using an oil-immersion objective with a magnification of 100 × 1.4 CFI Plan Apo Oil.\nEach experiment was repeated at least three times. The images acquired were adjusted using ImageJ2 software. Correlation coefficients were determined on entire images using JaCOP plugin.1 […]\nMCF-7 cells were seeded in a 8-µwell Ibidi plate at 25’000 cells/well in DMEM (100 µL, 10% FCS) and allowed to adhere overnight. The medium was removed. The cells were washed with PBS (200 µL, 1x) and incubated with the peptide solution at 20 µM, 10 µM, 5 µM, or 2.5 µM in DMEM (200 µL, 1% FCS) for 1 h at 37 °C. The medium was removed, and the cells were washed with PBS (200 µL, 2x).\nFor imaging of mitochondria, MitoTracker Deep Red was added as described in the manuscript. For imaging of endosomes/lysosomes, Ly s o Tr a c k e r Deep Red was added (200 µL, 20 nM in DMEM, 1% FBS) followed by incubation of the cells at 37 °C for 25 min. The medium was removed, and the cells were washed with PBS (200 µL, 2x). For imaging of the nucleus, Hoechst333342 was added at (200 µL, 2 µM in DMEM, 1% FBS) followed by incubation of the cells at 37 °C for 5 min. The cells were washed with PBS (200 µL, 2x), and FluoroBrite medium (200 µL) was added. The live cells were monitored on the confocal microscope […]\nMCF-7 cells were seeded in a 96-well plate at 7’500 cells/well in cell culture medium (200 µL, 10% FCS), and allowed to adhere overnight. The medium was removed, the cells were washed with PBS (100 µL, 1x) and incubated with the peptide solution at 20 µM, 10 µM, 5 µM, or 2.5 µM in DMEM (200 µL, 1% FCS) for 1 h at 37 °C. The medium was removed, and the cells were washed with PBS (100 µL, 1x). The MTT solution in DMEM (110 µL, 1.2 mM, 1% FBS) was added. The cells were incubated for 3 h at 37 °C. The […]"}, "[2]": {"experiment": "RP-HPLC retention time as estimate of hydrophobicity (C4 column, 30 to 55% B)", "assay_type": "physicochemical", "settings": "RP-HPLC used as estimate of hydrophobicity, A H2O/MeCN/TFA (1000/10/1), gradient 30 to 55% B, 20 min, CF-Ahx-labelled peptides", "description": "2 (A) General structure of amphipathic peptides, CF-Ahx-[XZZ]3-NH2; CF = 5(6)-Carboxyfluorescein, Ahx = aminohexanoic acid. (B) CD spectra of the peptides, recorded at 50 μM in H2O, pH 5.7. For a comparison with a spectrum of a Gup oligomer, see Figure S2. (C) Retention time of the peptides measured by RP-HPLC on a C4 column with a mobile phase from 30 to 55% of MeCN in H2O/MeCN/TFA (1000/10/1). (D) Representative confocal microscopic images of live MCF-7 cells, incubated for 1 h at 37 °C with peptide solutions at a concentration of 10 μM in DMEM + 1% FBS (left, in green). Mitochondria were stained with Deep Red MitoTracker (middle, in red) and merged images (right, orange/yellow indicating colocalization) with Hoechst33342 stain (blue) for the nucleus. TEXT PRINTED IN THE PICTURE: (C) (ValZZ)3: tr(min): 1.8 | (C) (PheZZ)3: tr(min): 2.9 | (C) (TrpZZ)3: tr(min): 3.2 | (C) (ChaZZ)3: tr(min): 5.4 DOUBTS OF THE COPYIST ABOUT THIS PICTURE: Panel C, column head: the small lowered letter after t is read as r (tr), not certain\nThe Gup residues should preorganize the peptides into a PPII helix with one hydrophobic and two cationic edges along the PPII helical peptide. Indeed, circular dichroism (CD) spectra of the peptides display the characteristic minimum and maximum at ∼206 nm and ∼224 nm, respectively, of a PPII helix (Figure B). The spectra imply that the non-proline residues in every third position are tolerated within the helical structure. We used reverse phase high performance liquid chromatography (RP-HPLC) for an estimate of the hydrophobicity of the peptides. On a C4 column using two mobile phases A (H2O/MeCN/TFA (1000/10/1)) and B (MeCN) with a gradient of 30% to 55% B, all peptides eluted over 20 min but with different retention times (Figure C). The Cha-containing peptide had the longest retention time, indicating the highest hydrophobicity within the series, followed by the Trp-, Phe-, and Val-peptides."}, "MCF-7 cells [3]": {"test_system": "MCF-7 cells", "experiment": "Flow cytometry (FACS): overall cellular uptake", "assay_type": "cell-based", "settings": "MCF-7, 1 h, 37 °C, Figure S1D", "description": "MCF-7 cells were seeded in a 24-well plate at 150′000 cells/well in DMEM (1 mL, 10% FCS), and allowed to adhere overnight. The medium was removed, the cells were washed with PBS (250 μL, 1x) and incubated with the peptide solution at 20 μM, 10 μM, 5 μM or 2.5 μM in medium (200 μL, 1% FCS) for 1 h at 37 °C. The medium was removed, and the cells were washed with PBS (250 μL, 2x). Trypsin (100 μL, 0.05%) was added, and the cells were incubated at 37 °C for 5 min. D-PBS with Mg^2+ and Ca^2+ (300 μL, 4 °C) was added, the cells were resuspended and centrifuged for 5 min at 0.4 rcf. The supernatant was carefully removed, and the cells were resuspended in a solution of PBS containing 1.5 μM PI and 2 mM EDTA (400 μL at 4 °C). The cells were added to FACS tubes and kept on ice prior to analysis. Each sample contained 10′000 cells and was analyzed in triplicate. Each experiment was repeated three times.\nFor the experiments that included the 24 h rest period, the peptides were incubated as described above. After the 1 h incubation time, the cells were washed with PBS (250 μL, 2x), DMEM (250 μL, 10% FBS) was added, and the cells were kept at 37 °C, 5% CO2 for 24 h. For a direct comparison of the effect of a 24 h rest period, another set of peptides was incubated with the cells for 1 h. Then, cells of both sets of experiments (1 h followed by the 24 h rest period versus 1 h incubation) were washed with PBS, treated with trypsin, and prepared for FACS analysis as described above. Each sample was run in triplicate and was repeated three times. […]\nMCF-7 cells were obtained from the American Type Culture Collection (ATCC).\nThe cells were grown in a humidified 5% CO2 atmosphere at 37 °C Dulbecco’s Modified Eagle’s Medium (DMEM), high glucose, GlutaMAXTM (4 mM) supplemented with L-glutamine (4 mM), gentamicin (10 mg/L), […]\nFluorescence-Activated Cell Sorting (FACS) analyzer\nOn a BD LSRFortessa flow cytometer, CF was excited at 488 nm and monitored with 530/30 bandpass, PI was excited at 561 nm and monitored with a 610/20 bandpass. Mean fluorescence values were determined from the histograms using FlowJo 10.0.6 software while dead cells were removed according to PI staining.\nBelow is an example, CF-Ahx-(ChaZZ)3, of gating, set on untreated cells and propagated to all samples.\nEach sample was run in triplicate, and each experiment was repeated at least three times.\n(1 picture or pasted object on this page, not shown here)"}, "[4]": {"settings": "earlier work of the authors' group; ref number not given; cited from earlier work", "text": "Octa-Gup adopts a polyproline II (PPII) helix in which every third amino acid is aligned (Figure E, center). As a result, the charges are organized along the three edges of the helix. […] In contrast, more flexible analogs–octaarginine and an oligoproline with spacers between the proline backbone and the guanidinium group–are trapped in endo ..."}, "[5]": {"settings": "10 μM peptide, MitoTracker Deep Red and Hoechst 33342 counterstain"}}, "note": "“Also recorded” adds a separate entry of the source.", "data": [{"substance": "CF-Ahx-(ChaZZ)2-NH2", "values": [{"measurement": "Cellular uptake and intracellular localization (confocal microscopy)", "setting": "MCF-7 cells [1]; 20 μM peptide", "value": "did not penetrate into the cells; also recorded: intracellular fluorescence was not detected"}, {"measurement": "Retention time tr", "setting": "[2]", "value": 4.9, "unit": "min"}]}, {"substance": "CF-Ahx-(ChaRR)3-NH2", "values": [{"measurement": "Cellular uptake and intracellular localization (confocal microscopy)", "setting": "MCF-7 cells [1]; 5 μM peptide", "value": "low uptake"}, {"measurement": "Cellular uptake and intracellular localization (confocal microscopy)", "setting": "MCF-7 cells [1]; [5]", "value": "excluded from mitochondria"}, {"measurement": "Cellular uptake and intracellular localization (confocal microscopy)", "setting": "MCF-7 cells [1]; 10 μM peptide, MitoTracker Deep Red and Hoechst 33342 counterstain, listed as CF-Ahx-(ChaRR)3-NH2", "value": "high uptake into the cytoplasm and the nucleus, but little to no uptake into mitochondria"}, {"measurement": "Cellular uptake compared to (ChaZZ)3 (FACS)", "setting": "MCF-7 cells [3]", "value": "enhanced cellular uptake"}]}, {"substance": "octaarginine", "values": [{"measurement": "Cellular uptake and intracellular localization", "setting": "[4]", "value": "trapped in endosomes to a significant extent and exhibit reduced cellular uptake"}]}, {"substance": "CF-Ahx-VZZVZZVZZ [(ValZZ)3, 9-mer CF-Ahx-(XZZ)3-NH2 with X = valine, Z = Gup]", "values": [{"measurement": "Cellular uptake and intracellular localization (confocal microscopy)", "setting": "MCF-7 cells [1]; [5]", "value": "little cellular uptake"}, {"measurement": "Cellular uptake and intracellular localization (confocal microscopy)", "setting": "MCF-7 cells [1]; 20 μM peptide", "value": "little cellular uptake"}]}]}
